The values that follow come from ChEMBL document CHEMBL3997831, “Synthesis and evaluation of prodrugs of corticotropin-releasing factor-1 (CRF1) receptor antagonist BMS-665053 leading to improved oral bioavailability” (Bioorg Med Chem Lett, 2017).

Data set [1] concerns the target T1, Alkaline phosphatase, tissue-nonspecific isozyme (Homo sapiens, UniProt P05186).
T1 sequence (P05186 whole entry): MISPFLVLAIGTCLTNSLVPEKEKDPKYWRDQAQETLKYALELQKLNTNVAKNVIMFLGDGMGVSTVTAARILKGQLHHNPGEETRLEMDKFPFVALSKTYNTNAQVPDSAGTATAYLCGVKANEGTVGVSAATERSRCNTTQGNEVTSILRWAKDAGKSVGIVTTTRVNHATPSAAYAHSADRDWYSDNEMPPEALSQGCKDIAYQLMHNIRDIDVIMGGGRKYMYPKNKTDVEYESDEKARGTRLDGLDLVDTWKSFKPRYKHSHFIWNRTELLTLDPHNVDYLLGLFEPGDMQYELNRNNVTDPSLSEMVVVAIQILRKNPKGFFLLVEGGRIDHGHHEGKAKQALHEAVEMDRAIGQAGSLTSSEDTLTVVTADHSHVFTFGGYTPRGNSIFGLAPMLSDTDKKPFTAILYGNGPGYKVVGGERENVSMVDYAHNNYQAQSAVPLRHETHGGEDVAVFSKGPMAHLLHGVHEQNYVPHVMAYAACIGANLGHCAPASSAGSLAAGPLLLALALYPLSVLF
Nature of the data set: Drug metabolism treated with 3-(Phosphonooxy)propyl (S)-(6-chloro-4-(1-cyclopropylethyl)-3-oxo-3,4-dihydropyrazin-2-yl)(2,6-dichloro-4-(difluoromethoxy)phenyl)carbamate, disodium salt assessed as alkaline phosphatase (unknown origin)-mediated compound conversion after 120 mins by LC-MS analysis. In kind it is ADME. The following applies: 2 h.

The target of data set [2] is T1, Alkaline phosphatase, tissue-nonspecific isozyme. Nature of the data set: Drug metabolism treated with 2,2-Dimethyl-3-(phosphonooxy)propyl (S)-(6-chloro-4-(1-cyclopropylethyl)-3-oxo-3,4-dihydropyrazin-2-yl)(2,6-dichloro-4-(difluoromethoxy)phenyl)carbamate, disodium salt assessed as alkaline phosphatase (unknown origin)-mediated compound conversion after 120 mins by LC-MS analysis. The following applies: 2 h. In kind it is ADME.

A further data set deals with Plasma. Briefly: Prodrug activation in Sprague-Dawley rat assessed as BMS-665053 level in plasma at 10 mg/kg, po by LC-MS/MS analysis. The format is organism-based. The following applies: in vivo.
The test system of data set [3] is Rattus norvegicus. Briefly: (§1) Cmax in Sprague-Dawley rat at 10 mg/kg, po by LC-MS/MS analysis. The format is ADME, organism-based. The arrangement: dose 10 mg/kg, route oral. The note with it: in vivo, BLD = below limit of detection.
Data set [4] deals with Rattus norvegicus. Briefly: (§2) AUC (0 to 24 hrs) in Sprague-Dawley rat at 10 mg/kg, po by LC-MS/MS analysis. The following applies: in vivo, 24 h, BLD = below limit of detection. The arrangement: dose 10 mg/kg, time < 24 hr, route oral. The format is ADME, organism-based.
Data set [5] can be described thus: Thermodynamic equilibrium aqueous solubility in pH 1 solution at 1 mg/ml after 15 to 24 hrs by UV-HPLC method. The format is physicochemical. The note with it: aqueous pH 1 solution, read-out: Therm_solubility.
Data set [6] in a line: Thermodynamic equilibrium aqueous solubility in pH 6.5 solution at 1 mg/ml after 15 to 24 hrs by UV-HPLC method. In kind it is physicochemical. The following applies: for solubility thermodynamic: aqueous pH 6.5 solution, read-out: Therm_solubility.
Data set [7] can be described thus: as §1. In kind it is ADME, organism-based. The arrangement: dose 10 mg/kg, route oral. The note with it: Sprague-Dawley, in vivo.
The nature of data set [8]: as §2. The format is ADME, organism-based. Set-up: dose 10 mg/kg, time < 24 hr, route oral. The note with it: Sprague-Dawley, in vivo.
Data set [9] in a line: Oral bioavailability in Sprague-Dawley rat at 10 mg/kg by LC-MS/MS analysis. The format is ADME, organism-based. The note with it: in vivo.
The nature of data set [10]: Prodrug activation in pH 7 buffer assessed as BMS-665053 formation after 10 mins by HPLC method.
Data set [11] in a line: Stability in pH 1 buffer by HPLC method. The format is physicochemical.
The nature of data set [12]: Stability in pH 7 buffer after 8 hrs by HPLC method. In kind it is physicochemical. The note with it: pH 7, 8 h.
Data set [13] is described as follows: Stability in pH 1 buffer after 8 hrs by HPLC method. The format is physicochemical. The note with it: pH 1, 8 h.

In brackets after ≈: the same amount, converted by molar mass.

Regarding `C[C@@H](C1CC1)n1cc(Cl)nc(N(C(=O)OCCCO)c2c(Cl)cc(OC(F)F)cc2Cl)c1=O`, the Drug metabolism entry in [1] and in data set [2] was “Metabolite_Detected” throughout.
For `C[C@@H](C1CC1)n1cc(Cl)nc(N(C(=O)OCC(C)(C)COP(=O)([O-])[O-])c2c(Cl)cc(OC(F)F)cc2Cl)c1=O.[Na+].[Na+]`, the Drug metabolism entry in the data set on Plasma was “Metabolite_Notdetected”. In addition, the Cmax – broadly, the highest concentration seen after dosing – in the data set with Rattus norvegicus [3] is “Bld”. Further, the AUC entry with Rattus norvegicus [4] is “Bld”. Also, the values for the solubility thermodynamic in data set [5] and in [6] were 50 µg/mL and more than 1500 µg/mL, respectively.
`C[C@@H](C1CC1)n1cc(Cl)nc(N(COP(=O)([O-])[O-])c2c(Cl)cc(OC(F)F)cc2Cl)c1=O.[Na+].[Na+]` showed a Cmax in data set [7] of 2150 nM. For the same molecule, the AUC(0-t) – broadly, the area under the concentration-time curve up to a stated or last time point – at 24 h in data set [8] turned out to be 5.99 µM·h. The bioavailability (in general, the share of a dose that reaches the circulation, judged against a reference dose that is usually intravenous) in data set [9] turned out to be 25%.
`CC(C)[C@H](N)C(=O)OCOC(=O)N(c1c(Cl)cc(OC(F)F)cc1Cl)c1nc(Cl)cn([C@@H](C)C2CC2)c1=O.Cl` returned a Cmax in data set [7] of 740 nM. In data set [8], this molecule yielded an AUC(0-t) at 24 h of 7.37 µM·h. Besides, in [9], the bioavailability was 32%. Besides, the solubility thermodynamic in data set [5] was 1820 µg/mL; in data set [6] it was 10 µg/mL.
Take `C[C@@H](C1CC1)n1cc(Cl)nc(N(C(=O)OCOP(=O)(O)O)c2c(Cl)cc(OC(F)F)cc2Cl)c1=O`: the values for the Drug metabolism (in the data set with Plasma; in data set [10]) were 23 %ID and “Metabolite detected”, respectively. The highest level in [7] (Cmax) was 460 nM. Further, the AUC(0-t) at 24 h in [8] was determined as 3.99 µM·h. In data set [9], this molecule yielded a bioavailability of 17%. For the same molecule, the solubility thermodynamic in data set [5] worked out at 338 µg/mL (≈ 584 µM). The Stability result in [11] is given as “Stable”. Moreover, the Therm_solubility entry in [6] (buffer) is recorded as “Nd(Unstable)”.
In turn, `C[C@@H](C1CC1)n1cc(Cl)nc(N(C(=O)OCOC(=O)CCN)c2c(Cl)cc(OC(F)F)cc2Cl)c1=O.Cl` displayed a Cmax in data set [7] of 490 nM. The molecule further yielded an area under the curve AUC(0-t) at 24 h in data set [8] of 6.32 µM·h. The molecule further gave a bioavailability in [9] of 27%. Besides, the solubility thermodynamic in [5] was determined as 1350 µg/mL; in data set [6], 30 µg/mL.
For `C[C@@H](C1CC1)n1cc(Cl)nc(Nc2c(Cl)cc(OC(F)F)cc2Cl)c1=O`, the AUC(0-t) at 24 h in data set [8] was determined as 1.26 µM·h. In addition, the solubility thermodynamic in data set [5] is 7 µg/mL (≈ 16.5 µM); in data set [6], less than 1 µg/mL.
With `C[C@@H](C1CC1)n1cc(Cl)nc(N(C(=O)OCCCOP(=O)([O-])[O-])c2c(Cl)cc(OC(F)F)cc2Cl)c1=O.[Na+].[Na+]`, the Stability entry in data set [12] and in [13] was “Stable” in each case. For the same molecule, in data set [7], the Cmax is 295 nM. In data set [8], this molecule showed an AUC(0-t) at 24 h of 4.23 µM·h. Moreover, the bioavailability in data set [9] was determined as 18%. Besides, the solubility thermodynamic in data set [5] came to 4 µg/mL; in data set [6], 1500 µg/mL.
`C[C@H](N)C(=O)OCOC(=O)N(c1c(Cl)cc(OC(F)F)cc1Cl)c1nc(Cl)cn([C@@H](C)C2CC2)c1=O.Cl` came in with a Cmax in data set [7] of 730 nM. Also, the AUC(0-t) at 24 h in [8] was determined as 8.25 µM·h. Further, the bioavailability in data set [9] turned out to be 36%. Moreover, the solubility thermodynamic stood at 370 µg/mL in [5] and 5 µg/mL in [6].
Turning to `C[C@@H](C1CC1)n1cc(Cl)nc(N(C(=O)OCOC(=O)CN(C)C)c2c(Cl)cc(OC(F)F)cc2Cl)c1=O`, in the data set with Plasma, the Drug metabolism result is “Metabolite_Notdetected”. Moreover, in the data set on Rattus norvegicus [3], the Cmax result is recorded as “Bld”. Also, the AUC result in the data set on Rattus norvegicus [4] is “Bld”. For the same molecule, the solubility thermodynamic was found to be 1720 µg/mL (≈ 2950 µM) in [5] and 530 µg/mL (≈ 908 µM) in data set [6].
